Measurements from patent US7067625B1, “Isolated TWIK-1 potassium channel proteins” (Centre National de la Recherche Scientifique - CNRS, priority 1996, dated 2006).

Assays:
TWIK-1 [1] = molecular target: T1, TWIK-1 (Homo sapiens, UniProt O00180); assay: Imposed voltage (two-microelectrode voltage-clamp) recording of TWIK-1 K+ currents in Xenopus oocytes injected with TWIK-1 cRNA; assay type: cell-based; set-up: expressed in transfected cells; host or cells: Xenopus laevis oocytes injected with cRNA transcribed from pEXO-TWIK-1; conditions: for sensitivity of the TWIK-1 channel to K+ channel openers: 100 μM
T1 sequence (O00180 1-336): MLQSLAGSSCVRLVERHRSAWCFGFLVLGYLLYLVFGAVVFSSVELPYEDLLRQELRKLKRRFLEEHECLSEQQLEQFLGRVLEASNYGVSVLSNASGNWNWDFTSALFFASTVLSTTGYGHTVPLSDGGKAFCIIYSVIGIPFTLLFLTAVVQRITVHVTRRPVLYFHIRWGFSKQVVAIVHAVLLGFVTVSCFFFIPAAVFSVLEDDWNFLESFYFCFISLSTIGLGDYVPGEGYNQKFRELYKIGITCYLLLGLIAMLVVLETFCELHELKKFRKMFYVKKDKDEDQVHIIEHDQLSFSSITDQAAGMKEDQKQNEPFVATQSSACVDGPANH
Procedure: A complementary RNA (cRNA) was transcribed of this construction and injected in the oocytes of X. laevis.
The TWIK-1 coding sequence was amplified using a low-error rate DNA polymerase (Pwo DNA pol, Boehringer) and subcloned in the plasmid pEXOii so as to yield pEXO-TWIK-1. Mutations were performed using the whole plasmid pEXO-TWIK-1 with a highly reliable PCR extension kit (Boehringer) and two adjacent primers. […] The product of the PCR was linearized by the enzyme BamHI and the cRNA were synthesized using a T7 RNA polymerase (Stratagene).
In a 0.3-ml perfusion chamber, a single oocyte was impaled on two standard glass microelectrodes (0.5–2.0 MW) charged with 3 M KCl and maintained under voltage-clamp with a Dagan TEV200 amplifier. […] Stimulation of the preparation, data acquisition and analyses were carried out with the pClamp program (Axon Instruments, USA).

TWIK-1 [2] = molecular target: T1, TWIK-1; assay: Single channel patch-clamp recordings (attached and inside-out patch) of TWIK-1 in oocytes
Procedure: The pipettes were filled with a strong K^+ solution (40 mM KCl, 100 mM of potassium methane sulfonate, 1.8 mM CaCl2, 2 m M MgCl2 and 5 mM HEPES adjusted to pH 7.4 with KOH). 100 μM of GdCl3 was added to the pipette solution to inhibit the action of the activated channels. The inside-out patches were perfused with a solution containing 140 m M KCl, 10 mM CaCl2, 5 mM HEPES adjusted to pH 7.2 with KOH and 5 mM EGTA added daily. The single channel signals were filtered at 3.5 kHz and analyzed with the Biopatch program (Bio-Logic, Grenoble, France).

[3] = read-out: inhibition of TWIK-1 currents

## Nc1ccncc1 [4-aminopyridine]
TWIK-1 [1]; 1 mM
  inhibition at 1000 µM: < 10%

## Nc1ncnc2c1nc(Cl)n2[C@@H]1O[C@@H]2COP(=O)(O)O[C@H]2[C@H]1O [8-Cl-AMPc]
TWIK-1 [1]; 300 μM
  effect on the activity of TWIK-1: does not affect

## CNc1ccc2oc(C[C@H]3O[C@@]4(CC[C@H]3C)O[C@H]([C@H](C)C(=O)c3ccc[nH]3)[C@H](C)C[C@H]4C)nc2c1C(=O)O [A23187]
TWIK-1 [1]; 1 μM, elevation of cytoplasmic Ca2+
  effect on the properties of the TWIK-1 channel: without effect

## Nc1ncnc2c1ncn2[C@@H]1O[C@H](COP(=O)(O)OP(=O)(O)OP(=O)(O)O)[C@@H](O)[C@H]1O [ATP]
TWIK-1 [2]; excised patch perfused with 10 mM
  effect on the activity of the TWIK-1 channel: does not induce any effect

## [Ba+2] [Ba^2+]
TWIK-1 [1]; Xenopus oocytes, +30 mV depolarization from HP -80 mV, read-out: IC50 of inhibition of the K+ currents of TWIK-1
  IC50: 100 µM

## O=C=O [CO2]
TWIK-1 [2]; after excision of the patch, bubbling of CO2
  sensitivity of channel activity to acidification of the internal solution: insensitive
TWIK-1 [1]; intracellular acidification by superfusion with CO2-enriched solution
  reduction in the TWIK-1 currents (of control amplitude): greater than 95%

## O=[N+]([O-])c1ccc(O)c([N+](=O)[O-])c1 [DNP, dinitrophenol]
TWIK-1 [1]; intracellular acidification by DNP, 1 mM
  reduction in the TWIK-1 currents (of control amplitude): 80%

## CCCCCCCCCC(=O)O[C@@H]1[C@@H](C)[C@@]2(O)[C@@H](C=C(CO)C[C@@]3(O)C(=O)C(C)=C[C@@H]23)[C@@H]2C(C)(C)[C@]12OC(=O)CCCCCCCCC [PDA, 4α-phorbol-12, 13 didecanoate]
TWIK-1 [1]; 1 μM
  effect on the TWIK-1 currents: has no effect

## CCCCCCCCCCCCCC(=O)O[C@@H]1[C@@H](C)[C@@]2(O)[C@@H](C=C(CO)C[C@]3(O)C(=O)C(C)=C[C@@H]23)[C@@H]2C(C)(C)[C@]12OC(C)=O [PMA, phorbol-12 myristate acetate]
TWIK-1 [2]; attached patch, 30 nM PMA, +60 mV
  channels revealed in an attached patch initially expressing a single channel: at least five channels
TWIK-1 [1]; 30 nM, perfusion 10 minutes
  effect on the TWIK-1 currents: increases the TWIK-1 currents

## CC[N+](CC)(CC)CC [TEA]
TWIK-1 [1]; 20 mM
  inhibition of TWIK-1 currents: 30%

## CCCCc1oc2ccccc2c1C(=O)c1cc(I)c(OCCN(CC)CC)c(I)c1 [amiodarone]
TWIK-1 [1]; [3]
  inhibition at 100 µM: < 10%

## CC(C)C[C@@H]1NC(=O)[C@H](C)NC(=O)[C@H]([C@@H](C)O)NC(=O)[C@H](CCC(=O)O)NC(=O)[C@@H]2CCCN2C(=O)[C@H](C)NC(=O)[C@H](CCCCN)NC(=O)[C@@H]2CSSC[C@@H](C(=O)N[C@@H](CCC(N)=O)C(=O)N[C@@H](CCC(N)=O)C(=O)N[C@@H](Cc3cnc[nH]3)C(N)=O)NC(=O)[C@H](CCCNC(=N)N)NC(=O)[C@H](CCCNC(=N)N)NC(=O)[C@H](C)NC(=O)[C@H](CSSC[C@H](N)C(=O)N[C@@H](CC(N)=O)C(=O)N2)NC1=O [apamin]
TWIK-1 [1]; [3]
  inhibition at 0.3 µM: < 10%

## CCCCCCC[N+](CC)(CC)CCCCc1ccc(Cl)cc1 [clofilium]
TWIK-1 [1]
  inhibition at 30 µM: < 10%

## CC1(C)Oc2ccc(C#N)cc2C(N2CCCC2=O)C1O (stereo not drawn) [cromakaline]
TWIK-1 [1]
  sensitivity of the TWIK-1 channel to K+ channel openers: not sensitive

## COc1ccc(Cl)cc1C(=O)NCCc1ccc(S(=O)(=O)NC(=O)NC2CCCCC2)cc1 [glibenclamide]
TWIK-1 [1]
  inhibition at 30 µM: < 10%

## CC(N/C(=N\C#N)Nc1ccncc1)C(C)(C)C (stereo not drawn) [pinacidil]
TWIK-1 [1]
  sensitivity of the TWIK-1 channel to K+ channel openers: not sensitive
